Experimental data as given in US9271504B2, “Insecticidal compositions and uses thereof” (Board of Trustees of Michigan State University, priority 2005, dated 2016).
Where “and” joins values, the source holds several entries; their conditions need not be identical. Identical values can stand only once.

Tests used:
[1] = system: 3rd instar Colorado potato beetle larvae; assay: Contact toxicity bioassay (Potter spray tower), 3rd instar larvae; details: 2 ml of 40% (w/w) plant suspension
Procedure: Fifty grams of sample were placed into 1000 ml Erlemneyer flasks with 500 ml of methanol (Sigma). Flasks were covered with aluminum foil, placed on a horizontal shaker (HS 260 Basic, IKA Group) and shaken (120 oscillations/min for 24 h) in the dark. The suspension was filtered through two layers of cheese cloth, transferred into a 250 ml evaporating flask and excess methanol evaporated in a rotary evaporator (RV 05 Basic 1B, IKA Group) at 32±2° C. The resulting residue was weighted and eluted with sufficient distilled water containing 10% acetone (w/w) to yield a 40% (w/w) plant suspension.
Two ml of the distilled water containing 10% acetone was also applied to 20 larvae in each replicate as a negative control along with imidacloprid (CONFIDOR SL, Bayer) at manufacturer recommended rate as a positive control. After spraying, the larvae were transferred into 1000 ml glass jars and provided with fresh potato leaflets. The top of each jar was covered with cheese cloth and held at 28±2° C. and 16 h: 8 h light dark photo regime. Mortalities were recorded at 24 h intervals for 7 days. […] Each treatment was replicated three times within a trial and each trial was repeated three times.
Data were corrected for mortality in the controls using Abbotts formula and then normalized using arcsine transformation. Transformed data were analyzed using ANOVA (∝=0.05) and Tukeys mean separation (∝=0.05). […]

[2] = system: Colorado potato beetle 1st-4th instar larvae and adults; assay: Contact toxicity to various development stages; type: in vivo, Leptinotarsa decemlineata; details: 48 h incubation, 40% (w/w) suspension
Procedure: The plant samples were prepared according to the procedure described above. Nine extracts were used in this study. The plants (Table 8) were all collected during spring and summer of 2002. Samples were dried at room temperature and were ground for 5 min in a mill (M 20 IKA Universal Mill, IKA Group). […] For the dose-mortality bioassay, H. lupulus extract stock suspension was prepared as described above, containing 50% (w/w) plant extract/water with 10% acetone, and diluted in distilled water containing 10% acetone (w/w) to produce solutions containing 2.5, 5, 10, 20 and 40% (w/w).
Extract contact effects were determined on 1st-4th instar larvae as well as adult beetles. Twenty individuals for each development stage were transferred to Whatman filter paper in 90 mm disposable Petri dishes. The plant extract suspensions were shaken for 1 min and 2 ml of extract suspension was applied to each batch using a Potter spray tower set at 10 PSI with a 0.7 mm diameter fine droplet spray nozzle. After spraying, the insects were left to dry for 10 min at room temperature before transferring into a 1 l glass jar with fresh potato leaflets. The insects were incubated at 28±2° C. and 16:8 hr photophase. Controls were treated with 2 ml sterile distilled water containing 10% acetone. Imidacloprid (CONFIDOR SL, Bayer) was used as a standard control and three groups of 20 insects were treated with 2 ml of imidacloprid at the manufacturer's recommended rate (1.5 μl/ml) in distilled water. Mortalities were recorded at 24 h intervals for 7 d. Data were submitted to a randomized complete block statistical analysis. Three replicates of each developmental stage were sprayed with a plant extract suspension, three were used as control in each trial and three trials were performed each consisting of 3 treatment replicates.
Screening data were corrected for mortality in the controls using Abbott's formula (Abbott, J Econ Entomol 18:265-267 (1925)) and then normalised using an arcsine transformation. Transformed data were analyzed using ANOVA (P<0.05) and Tukeys mean separation (P≦0.05). All statistical analyses were carried out using MINITAB Release 14. Colorado potato beetle mortality obtained from dose-mortality bioassay utilizing H. lupulus was corrected for control mortality using Abbott's formula (supra). The corrected mortality data were analyzed using POLO-PC to estimate LC50, LC90 and the regression line slopes. Homogeneity of the regression lines between various developmental stages were tested using the maximum likelihood approximation test (P≦0.05).

[3] = system: 3rd instar Colorado potato beetle larvae; assay: Residual (stomach poison) toxicity bioassay on treated potato leaflets; type: in vivo, Leptinotarsa decemlineata; details: leaflets treated with 20% (w/w) extract
Procedure: Stomach poison effects of the thirty plant extracts were assed by morbidity assays using 3rd instar larvae fed on treated potato leaflets.
Leaflets were treated with 2 ml of each plant extract suspension in distilled water containing 10% acetone with the Potter Spray Tower set at 10 PSI with a 0.7 mm internal diameter nozzle. After treatment, the leaflets were dried at room temperature for about 5 min. The cut end of each leaflet petiole was covered with a 30×55 mm piece of sterile cotton wool, which was moistened with 2 ml of water containing 1% NPK (20-20-20) fertilizer. This treatment ensured that the excised leaflet remained green for at least 7 days. Treated leaflets were transferred into 1000 ml glass jars to which 20 3rd instar larvae were added before incubation as described above. Mortalities were assessed at 24 hr intervals for 7 days. Control leaflets were treated with 2 ml of distilled water containing 10% acetone and the standard imidacloprid control was used as described above. Each treatment was repeated three times per block and blocks were completed in a randomized complete block design.

[4] = system: obliquebanded leafrollers, Choristoneura rosaceana; assay: Electroantennogram (EAG) responses of obliquebanded leafrollers; type: in vivo; details: 2 mg on filter paper
Procedure: (§1) Five natural-product sources were used per study. The plants (Table 1) were all collected from sandy lime soil during spring and summer of 2002 in Ta ? liçiftlik, Tokat, in a temperate region of Turkey, where the altitude is 600 m. Samples were dried at room temperature for 3 wk in the dark and subsequently were ground in a mill (M 20 IKA Universal Mill, IKA Group). Ground plants were stored in 2000-ml glass jars at 18±2° C. in the dark. Fifty-gram samples were placed into 1000-ml Erlenmeyer flasks with 500-ml of methanol (Sigma). […] The resulting residue was weighed and mixed with acetone to yield a 20% (w/w) plant suspension.
(§2) The EAG system and test protocols have been detailed by Stelinski et al. (2003 J. Chem. Ecol. 29: 403-422; Physiol. Entomol. 28: 97-107). Two milligrams of plant extracts (Table 1) or pheromone ((Z)11-14:Ac (lot #10010), Shin Etsu Tokyo, Japan) were diluted in acetone (20 μl total solution) and pipetted onto 1.4×0.5 cm strips of Whatman No. 1 filter paper. […] EAGs were measured as the maximum amplitude of depolarization elicited by 1-ml puffs of air through EAG-cartridges directed over live-insect preparations.
(§3) Male and female obliquebanded leafrollers and redbanded leafrollers were 2-4 d old when used for electroantennograms. […] For each sample tested, EAGs were recorded from ten moths of each sex. […]

[5] = system: redbanded leafrollers, Argyrotaenia velutinana; assay: Electroantennogram (EAG) responses of redbanded leafrollers; type: in vivo; details: 2 mg on filter paper
Procedure: as §1, §2, §3

[6] = system: obliquebanded leafrollers, Choristoneura rosaceana; assay: Eight-arm olfactometer attraction study; type: in vivo; details: 25 μl of 20% w/w extract in acetone, counts after 24 h
Description: Male or female obliquebanded leafrollers used in this study were 1-3 d old. They were reared as described above. Discs, 55 mm in diameter, were cut from the sticky liners of pheromone traps (LPD Scenturian Guardpost, Suterra, Bend, Oreg.) intended for catching Lepidoptera. Each sticky disc was cleaned with acetone and placed into sterile 90-mm disposable Petri dish. Twenty millimeter diameter discs, cut from Whatman Number 1 filter paper, were placed centrally on top of the 55-mm sticky discs. Twenty-five microliters of each plant extract, diluted in acetone (20% w/w), was applied to the central filter paper disc. In the control treatment, 25-μl of acetone was applied to the disc. In the positive control, 25-μl of the pheromone component (Z)11-14:Ac was applied. In addition to positive control and negative or non-treatment control discs, a three-component obliquebanded leafroller pheromone in a rubber septum was also used as a standard. The septa were loaded with 0.485 mg of (Z)- and 0.015 mg (E)-11-tetradecenyl acetates and 0.026 mg of (Z)-11-tetradecenol (Hill and Roelofs 1979). […]
For the olfactometer test, the number of male insects attracted by each treatment was expressed as a percentage of the total number of insects tested in each replicate. […] The transformed data were analyzed using single-factor ANOVA (Minitab Release 14) (P=0.05) followed by Tukey's test (P=0.05). […]

| Structure (SMILES) | Mortality % (mean ± SEM) caused by contact effect ([1]; 24 h incubation at 28 ± 2° C.) [a A %] | Mortality % (mean ± SEM) caused by contact effect ([1]; 48 h incubation at 28 ± 2° C.) [a A %] | % Mortality ± SEM, contact toxicity ([2]; 1st Instar Larvae) [%] | % Mortality ± SEM, contact toxicity ([2]; 2nd Instar Larvae) | % Mortality ± SEM, contact toxicity ([2]; 3rd Instar Larvae) [%] | % Mortality ± SEM, contact toxicity ([2]; 4th Instar Larvae) | % Mortality ± SEM, contact toxicity ([2]; Adult) [a %] | Residual toxicities % (mean ± SEM) ([3]; 48 h incubation at 28 ± 2° C.) | Residual toxicities % (mean ± SEM) ([3]; 72 h incubation at 28 ± 2° C.) [a A %] | EAG responses (mV ± SE) upon stimulation with 1 ml of air through stimulus cartridge ([4]; females) [ab mV] | EAG responses (mV ± SE) upon stimulation with 1 ml of air through stimulus cartridge ([4]; males) [a mV] | EAG responses (mV ± SE) upon stimulation with 1 ml of air through stimulus cartridge ([5]; females) [a mV] | EAG responses (mV ± SE) upon stimulation with 1 ml of air through stimulus cartridge ([5]; males) [a mV] | Attraction (Mean ± SEM) % ([6]; females, listed as Pheromone on paper) | Attraction (Mean ± SEM) % ([6]; males) [bc %] |
| --- | --- | --- | --- | --- | --- | --- | --- | --- | --- | --- | --- | --- | --- | --- | --- |
| O=[N+]([O-])NC1=NCCN1Cc1ccc(Cl)nc1 [Imidacloprid] | 100 ± 0.00 | 100 ± 0.00 | 100 | 94.8% and 94.82 ± 3.05 a % | 100 | 11.5% and 11.57 ± 0.11 b % | 44.37 ± 3.32 | 71.9% and 71.89 ± 0.25 a A % | 83.64 ± 0.23 |  |  |  |  |  |  |
| CC/C=C\CCCCCCCCCCOC(C)=O [Pheromone, (Z)11-14:Ac] |  |  |  |  |  |  |  |  |  | 0.45 ± 0.06 | 4.87 ± 0.32 | 0.43 ± 0.06 | 5.42 ± 0.40 | 1.1% and 1.14 ± 1.12 b % | 4.05 ± 1.66 |
